According to PubChem BioAssay AID1963973 (Molecular Pharmacology Branch, DTP, NCI, 2024):

Test system: 883617-216-R-J1-PDC tumor spheroids, viability
Assay: Anticancer human tumor 883617-216-R-J1-PDC patient-derived bladder carcinoma cell line growth inhibition [PI3K]
Conditions: spheroids with HUVEC and MSC; for IC50: curve of first compound; for viability, T/C: stronger effect = lower value
Method in brief: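 We assembled tumor spheroids that included a stromal compartment of HUVEC and MSCs, then exposed them to targeted agents alone and together with PI3K pathway inhibitors. Concentration series descended by half-log from clinically achievable Cmax levels. Viability served as the endpoint.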

[1] = second compound 0.0316 µM, first compound 0.0316 µM
[2] = second compound 0.0316 µM, first compound 0.1 µM
[3] = second compound 0.1 µM, first compound 0.0316 µM
[4] = second compound 0.1 µM, first compound 0.1 µM
[5] = second compound 0.316 µM, first compound 0.0316 µM
[6] = second compound 0.316 µM, first compound 0.1 µM
[7] = second compound 1 µM, first compound 0.0316 µM
[8] = second compound 1 µM, first compound 0.1 µM
[9] = second compound 3.16 µM, first compound 0.0316 µM
[10] = second compound 3.16 µM, first compound 0.1 µM
[11] = second compound 10 µM, first compound 0.0316 µM
[12] = second compound 10 µM, first compound 0.1 µM
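Further: spheroids exposed to agents for 7 days before the viability read.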

Q: `CC(=O)c1c(C)c2cnc(Nc3ccc(N4CCNCC4)cn3)nc2n(C2CCCC2)c1=O` + Cc1nc(NC(=O)N2CCCC2C(N)=O)sc1-c1ccnc(C(C)(C)C(F)(F)F)c1 was tested. Which IC50 (second compound 0.0316 µM) did it give?
A: > 100 nM

Q: What about the IC50 (second compound 0.1 µM) of the same molecule?
A: 23.7 nM

Q: What about the IC50 (second compound 0.316 µM) of the same molecule?
A: < 0.316 nM

Q: What about the IC50 (second compound 1 µM) of the same molecule?
A: < 0.316 nM

Q: And the IC50 (second compound 3.16 µM)?
A: < 0.316 nM

Q: And the IC50 (second compound 10 µM)?
A: < 0.316 nM

Q: What about the viability, T/C (second compound 0.0316 µM, first compound 0.000316 µM) of the same molecule?
A: 81%

Q: And the viability, T/C (second compound 0.0316 µM, first compound 0.001 µM)?
A: 70.3%

Q: What about the viability, T/C (second compound 0.0316 µM, first compound 0.00316 µM) of the same molecule?
A: 82.5%

Q: And the viability, T/C (second compound 0.0316 µM, first compound 0.01 µM)?
A: 68.1%

Q: And the viability, T/C [1]?
A: 58.7%

Q: And the viability, T/C [2]?
A: 50.3%

Q: And the viability, T/C (second compound 0.1 µM, first compound 0.000316 µM)?
A: 65.4%

Q: And the viability, T/C (second compound 0.1 µM, first compound 0.001 µM)?
A: 63.5%

Q: And the viability, T/C (second compound 0.1 µM, first compound 0.00316 µM)?
A: 62.8%

Q: What about the viability, T/C (second compound 0.1 µM, first compound 0.01 µM) of the same molecule?
A: 57.8%

Q: What about the viability, T/C [3] of the same molecule?
A: 47.4%

Q: And the viability, T/C [4]?
A: 37.6%

Q: What about the viability, T/C (second compound 0.316 µM, first compound 0.000316 µM) of the same molecule?
A: 47.7%

Q: What about the viability, T/C (second compound 0.316 µM, first compound 0.001 µM) of the same molecule?
A: 43.8%

Q: And the viability, T/C (second compound 0.316 µM, first compound 0.00316 µM)?
A: 33%

Q: What about the viability, T/C (second compound 0.316 µM, first compound 0.01 µM) of the same molecule?
A: 43.2%

Q: What about the viability, T/C [5] of the same molecule?
A: 34.5%

Q: What about the viability, T/C [6] of the same molecule?
A: 26.3%

Q: And the viability, T/C (second compound 1 µM, first compound 0.000316 µM)?
A: 26.7%

Q: And the viability, T/C (second compound 1 µM, first compound 0.001 µM)?
A: 31.5%

Q: And the viability, T/C (second compound 1 µM, first compound 0.00316 µM)?
A: 25.7%

Q: And the viability, T/C (second compound 1 µM, first compound 0.01 µM)?
A: 23.3%

Q: And the viability, T/C [7]?
A: 21.1%

Q: And the viability, T/C [8]?
A: 17.2%

Q: What about the viability, T/C (second compound 3.16 µM, first compound 0.000316 µM) of the same molecule?
A: 12.9%

Q: What about the viability, T/C (second compound 3.16 µM, first compound 0.001 µM) of the same molecule?
A: 11.8%

Q: And the viability, T/C (second compound 3.16 µM, first compound 0.00316 µM)?
A: 13.6%

Q: And the viability, T/C (second compound 3.16 µM, first compound 0.01 µM)?
A: 14.4%

Q: What about the viability, T/C [9] of the same molecule?
A: 11.7%

Q: What about the viability, T/C [10] of the same molecule?
A: 11.6%

Q: What about the viability, T/C (second compound 10 µM, first compound 0.000316 µM) of the same molecule?
A: 8.2%

Q: What about the viability, T/C (second compound 10 µM, first compound 0.001 µM) of the same molecule?
A: 6.55%

Q: And the viability, T/C (second compound 10 µM, first compound 0.00316 µM)?
A: 6.27%

Q: What about the viability, T/C (second compound 10 µM, first compound 0.01 µM) of the same molecule?
A: 7.44%

Q: And the viability, T/C [11]?
A: 6.18%

Q: And the viability, T/C [12]?
A: 5.86%

Q: Which IC50 (second compound 0.0316 µM) does the source give for `CNC(=O)c1ccc(N2C(=S)N(c3ccc(C#N)c(C(F)(F)F)c3)C(=O)C2(C)C)cc1F` + Cc1nc(NC(=O)N2CCCC2C(N)=O)sc1-c1ccnc(C(C)(C)C(F)(F)F)c1 here?
A: > 10000 nM

Q: What about the IC50 (second compound 0.1 µM) of the same molecule?
A: > 10000 nM

Q: What about the IC50 (second compound 0.316 µM) of the same molecule?
A: < 31.6 nM

Q: And the IC50 (second compound 1 µM)?
A: < 31.6 nM

Q: What about the IC50 (second compound 3.16 µM) of the same molecule?
A: < 31.6 nM

Q: And the IC50 (second compound 10 µM)?
A: < 31.6 nM

Q: And the viability, T/C [1]?
A: 94.3%

Q: What about the viability, T/C [2] of the same molecule?
A: 75.6%

Q: And the viability, T/C (second compound 0.0316 µM, first compound 0.316 µM)?
A: 86.2%

Q: What about the viability, T/C (second compound 0.0316 µM, first compound 1 µM) of the same molecule?
A: 82.5%

Q: What about the viability, T/C (second compound 0.0316 µM, first compound 3.16 µM) of the same molecule?
A: 87.8%

Q: And the viability, T/C (second compound 0.0316 µM, first compound 10 µM)?
A: 63.4%

Q: And the viability, T/C [3]?
A: 74%

Q: What about the viability, T/C [4] of the same molecule?
A: 67.2%

Q: And the viability, T/C (second compound 0.1 µM, first compound 0.316 µM)?
A: 81.8%

Q: What about the viability, T/C (second compound 0.1 µM, first compound 1 µM) of the same molecule?
A: 74.7%

Q: And the viability, T/C (second compound 0.1 µM, first compound 3.16 µM)?
A: 63.6%

Q: What about the viability, T/C (second compound 0.1 µM, first compound 10 µM) of the same molecule?
A: 73.7%

Q: And the viability, T/C [5]?
A: 48.6%

Q: What about the viability, T/C [6] of the same molecule?
A: 49.1%

Q: What about the viability, T/C (second compound 0.316 µM, first compound 0.316 µM) of the same molecule?
A: 46.7%

Q: And the viability, T/C (second compound 0.316 µM, first compound 1 µM)?
A: 45.7%

Q: What about the viability, T/C (second compound 0.316 µM, first compound 3.16 µM) of the same molecule?
A: 53.6%

Q: And the viability, T/C (second compound 0.316 µM, first compound 10 µM)?
A: 45.6%

Q: And the viability, T/C [7]?
A: 31%

Q: And the viability, T/C [8]?
A: 27.3%

Q: What about the viability, T/C (second compound 1 µM, first compound 0.316 µM) of the same molecule?
A: 33.1%

Q: What about the viability, T/C (second compound 1 µM, first compound 1 µM) of the same molecule?
A: 32.4%

Q: And the viability, T/C (second compound 1 µM, first compound 3.16 µM)?
A: 25.9%

Q: And the viability, T/C (second compound 1 µM, first compound 10 µM)?
A: 31.7%

Q: What about the viability, T/C [9] of the same molecule?
A: 15.9%

Q: And the viability, T/C [10]?
A: 15.3%

Q: What about the viability, T/C (second compound 3.16 µM, first compound 0.316 µM) of the same molecule?
A: 17.6%

Q: What about the viability, T/C (second compound 3.16 µM, first compound 1 µM) of the same molecule?
A: 16.6%

Q: What about the viability, T/C (second compound 3.16 µM, first compound 3.16 µM) of the same molecule?
A: 15.7%

Q: What about the viability, T/C (second compound 3.16 µM, first compound 10 µM) of the same molecule?
A: 14.3%

Q: What about the viability, T/C [11] of the same molecule?
A: 8.45%

Q: What about the viability, T/C [12] of the same molecule?
A: 7.75%

Q: And the viability, T/C (second compound 10 µM, first compound 0.316 µM)?
A: 8.14%

Q: What about the viability, T/C (second compound 10 µM, first compound 1 µM) of the same molecule?
A: 7.47%

Q: What about the viability, T/C (second compound 10 µM, first compound 3.16 µM) of the same molecule?
A: 8.35%

Q: And the viability, T/C (second compound 10 µM, first compound 10 µM)?
A: 6.73%
